Test results as given in patent US4814455A, “Dihydro-3,5-dicarboxylates” (Bristol-Myers Company, priority 1986, dated 1989).
Structures can show the parent of a compound that is named as a salt. Where two headings read alike, the source gives them in different places.

Columns and labels:
rat dorsal aorta = rat dorsal aorta (Rattus norvegicus, UniProt P22002); experiment: cell-based; conditions: read-out: Calcium Entry Blockade (pA2) (converted)
Excerpt: Calcium ion entry blockade was studied in various smooth muscle systems such as rat dorsal aorta, portal vein, and trachea.

[1] = system: globally ischemic rat myocardium; experiment: Autolysis: protection of high energy phosphate stores in globally ischemic rat myocardium; set-up: Autolysis (% Protection): concentration or dose not given beside the values; conditions: for Autolysis (% Protection): protection of high energy phosphate stores in globally ischemic rat myocardium
[2] = pA2 = negative log of molar antagonist concentration giving dose ratio of 2, active if 7 or greater

Sequence of rat dorsal aorta (P22002 whole entry): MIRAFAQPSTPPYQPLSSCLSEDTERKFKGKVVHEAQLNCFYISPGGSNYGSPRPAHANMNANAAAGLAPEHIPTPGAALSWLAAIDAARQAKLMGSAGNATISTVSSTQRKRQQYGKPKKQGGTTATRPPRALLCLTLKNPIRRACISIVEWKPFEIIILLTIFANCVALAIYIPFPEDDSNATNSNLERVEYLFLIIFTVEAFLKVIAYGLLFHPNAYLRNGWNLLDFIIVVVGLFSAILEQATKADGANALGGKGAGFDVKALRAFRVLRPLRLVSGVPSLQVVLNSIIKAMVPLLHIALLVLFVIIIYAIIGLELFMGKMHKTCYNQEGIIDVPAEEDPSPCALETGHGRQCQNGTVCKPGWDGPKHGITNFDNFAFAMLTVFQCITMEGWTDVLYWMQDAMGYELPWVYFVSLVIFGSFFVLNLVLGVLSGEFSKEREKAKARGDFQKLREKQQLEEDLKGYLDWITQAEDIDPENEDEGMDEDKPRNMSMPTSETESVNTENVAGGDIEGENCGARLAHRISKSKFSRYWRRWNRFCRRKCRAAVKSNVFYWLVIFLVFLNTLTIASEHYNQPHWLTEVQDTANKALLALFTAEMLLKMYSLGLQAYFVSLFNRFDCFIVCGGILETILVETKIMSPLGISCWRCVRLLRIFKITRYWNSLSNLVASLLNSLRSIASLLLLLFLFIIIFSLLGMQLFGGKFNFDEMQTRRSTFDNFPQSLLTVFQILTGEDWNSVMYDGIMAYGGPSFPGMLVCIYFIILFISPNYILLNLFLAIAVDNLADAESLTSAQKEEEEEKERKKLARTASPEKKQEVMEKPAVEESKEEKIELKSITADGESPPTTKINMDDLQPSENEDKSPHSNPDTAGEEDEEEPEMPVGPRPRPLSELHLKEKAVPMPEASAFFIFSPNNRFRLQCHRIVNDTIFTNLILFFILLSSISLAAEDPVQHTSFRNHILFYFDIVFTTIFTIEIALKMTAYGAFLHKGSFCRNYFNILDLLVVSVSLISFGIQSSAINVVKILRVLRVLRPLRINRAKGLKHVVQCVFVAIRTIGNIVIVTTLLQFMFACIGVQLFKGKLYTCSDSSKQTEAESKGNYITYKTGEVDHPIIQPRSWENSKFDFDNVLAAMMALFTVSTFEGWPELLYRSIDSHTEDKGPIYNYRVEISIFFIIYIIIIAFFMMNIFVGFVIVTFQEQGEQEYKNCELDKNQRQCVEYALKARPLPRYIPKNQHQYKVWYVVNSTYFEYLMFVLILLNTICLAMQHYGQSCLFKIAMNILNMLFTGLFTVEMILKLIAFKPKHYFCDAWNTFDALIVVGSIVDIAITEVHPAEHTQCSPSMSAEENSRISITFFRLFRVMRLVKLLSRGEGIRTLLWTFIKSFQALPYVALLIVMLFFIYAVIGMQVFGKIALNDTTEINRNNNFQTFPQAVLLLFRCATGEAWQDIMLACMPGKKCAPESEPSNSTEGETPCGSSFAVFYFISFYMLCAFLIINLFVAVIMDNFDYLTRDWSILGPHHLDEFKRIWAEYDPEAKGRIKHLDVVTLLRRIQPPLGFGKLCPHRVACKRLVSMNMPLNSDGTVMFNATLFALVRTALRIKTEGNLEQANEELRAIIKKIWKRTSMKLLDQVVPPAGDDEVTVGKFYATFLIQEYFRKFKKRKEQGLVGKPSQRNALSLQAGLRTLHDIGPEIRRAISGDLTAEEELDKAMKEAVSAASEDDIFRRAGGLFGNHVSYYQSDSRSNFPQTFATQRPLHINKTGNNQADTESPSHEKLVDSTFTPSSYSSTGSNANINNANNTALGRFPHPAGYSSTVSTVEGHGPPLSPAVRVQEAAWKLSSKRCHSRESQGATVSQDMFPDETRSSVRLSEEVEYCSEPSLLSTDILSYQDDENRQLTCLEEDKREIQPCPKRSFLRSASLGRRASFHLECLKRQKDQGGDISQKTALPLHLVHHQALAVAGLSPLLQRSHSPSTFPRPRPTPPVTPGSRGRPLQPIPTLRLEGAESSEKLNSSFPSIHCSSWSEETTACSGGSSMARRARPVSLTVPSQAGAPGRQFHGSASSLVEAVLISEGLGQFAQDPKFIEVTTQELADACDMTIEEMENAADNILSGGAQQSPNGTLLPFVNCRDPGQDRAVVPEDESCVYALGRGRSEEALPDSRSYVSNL
Sequence of rat dorsal aorta (P54290 25-944 partner limits assumed): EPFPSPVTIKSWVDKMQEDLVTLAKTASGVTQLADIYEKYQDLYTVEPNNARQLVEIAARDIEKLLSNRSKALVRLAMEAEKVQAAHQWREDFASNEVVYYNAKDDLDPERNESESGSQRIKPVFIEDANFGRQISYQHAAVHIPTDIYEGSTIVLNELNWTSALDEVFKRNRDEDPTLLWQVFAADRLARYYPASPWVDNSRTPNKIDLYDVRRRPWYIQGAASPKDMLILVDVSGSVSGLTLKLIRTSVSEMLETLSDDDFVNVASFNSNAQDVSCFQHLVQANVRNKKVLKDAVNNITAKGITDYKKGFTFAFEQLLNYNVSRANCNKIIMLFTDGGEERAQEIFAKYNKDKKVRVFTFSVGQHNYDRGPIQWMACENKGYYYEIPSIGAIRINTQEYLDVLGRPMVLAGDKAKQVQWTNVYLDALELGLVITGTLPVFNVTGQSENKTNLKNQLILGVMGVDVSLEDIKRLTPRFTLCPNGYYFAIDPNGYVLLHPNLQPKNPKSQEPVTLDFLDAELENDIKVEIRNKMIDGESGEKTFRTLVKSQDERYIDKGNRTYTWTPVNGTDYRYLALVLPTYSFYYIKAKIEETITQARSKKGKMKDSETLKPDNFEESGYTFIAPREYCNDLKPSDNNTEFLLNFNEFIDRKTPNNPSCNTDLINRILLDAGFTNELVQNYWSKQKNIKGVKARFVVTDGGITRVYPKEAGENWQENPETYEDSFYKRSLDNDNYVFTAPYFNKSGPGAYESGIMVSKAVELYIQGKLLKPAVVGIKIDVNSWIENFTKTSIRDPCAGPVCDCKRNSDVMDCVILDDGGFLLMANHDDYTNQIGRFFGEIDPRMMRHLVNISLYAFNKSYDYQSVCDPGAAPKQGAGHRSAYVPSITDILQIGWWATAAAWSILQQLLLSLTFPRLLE
Sequence of rat dorsal aorta (P54290 945-1091 partner limits assumed): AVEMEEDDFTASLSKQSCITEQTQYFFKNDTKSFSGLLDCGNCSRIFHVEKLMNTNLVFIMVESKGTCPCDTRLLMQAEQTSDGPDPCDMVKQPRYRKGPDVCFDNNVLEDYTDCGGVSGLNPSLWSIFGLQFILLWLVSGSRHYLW

| SMILES | Kb (rat dorsal aorta; [2]) | Autolysis (% Protection) [1] | Kb (rat dorsal aorta; […], active if 7 or greater) | anti-ischemia action / protection against autolysis caused by ischemia ([1]; in words, in vitro and in vivo laboratory tests) |
| --- | --- | --- | --- | --- |
| COC(=O)C1=C(C)NC(C)=C(C(=O)OCCCNCCNc2ccccc2)C1c1cccc([N+](=O)[O-])c1 (centres unmarked) [Example 32] | 2.95 nM | 0% |  |  |
| COC(=O)C1=C(C)NC(C)=C(C(=O)OCCCNCCc2c[nH]c3ccccc23)C1c1cccc([N+](=O)[O-])c1 (centres unmarked) [Example 33] | 0.0316 nM | 35% |  |  |
| COC(=O)C1=C(C)NC(C)=C(C(=O)OCCCN(C)CCSc2ccccc2)C1c1cccc([N+](=O)[O-])c1.Cl (centres unmarked) [Example 34, Methyl [3-[N-Methyl-N-[2-(phenylthio)ethyl]amino]propyl] 1,4-Dihydro-2,6-dimethyl-4-(3-nitrophenyl)-3,5-pyridinedicarboxylate Hydrochloride] |  | 43% | 0.126 nM |  |
| COC(=O)C1=C(C)NC(C)=C(C(=O)OCCCNCCOc2ccccc2)C1c1cccc([N+](=O)[O-])c1 (centres unmarked) [Example 35] | 0.468 nM | 21% |  |  |
| COC(=O)C1=C(C)NC(C)=C(C(=O)OCCCN(C)CCN(C)c2ccccc2)C1c1cccc([N+](=O)[O-])c1 (centres unmarked) [Example 36] | 0.126 nM | 12% |  |  |
| COC(=O)C1=C(C)NC(C)=C(C(=O)OCCCN(C)CCNc2ccccc2)C1c1cccc([N+](=O)[O-])c1 (centres unmarked) [Example 37] | 0.129 nM | 23% |  |  |
| COC(=O)C1=C(C)NC(C)=C(C(=O)OCCCN(C)CCN(Cc2ccccc2)c2ccccc2)C1c1cccc([N+](=O)[O-])c1 (centres unmarked) [Example 38] |  | 16% |  |  |
| COC(=O)C1=C(C)NC(C)=C(C(=O)OCCCN(C)CCSc2ccc(C(C)(C)C)cc2C)C1c1cccc([N+](=O)[O-])c1 (centres unmarked) [Example 39] | 14.5 nM | 51% |  |  |
| COC(=O)C1=C(C)NC(C)=C(C(=O)OCCCN(C)CCCSc2ccccc2)C1c1cccc([N+](=O)[O-])c1 (centres unmarked) [Example 40] | 3.63 nM | 23% |  |  |
| COC(=O)C1=C(C)NC(C)=C(C(=O)OCCCN(C)CCSc2ccccc2OC)C1c1cccc([N+](=O)[O-])c1 (centres unmarked) [Example 41] | 2.75 nM |  |  |  |
| COC(=O)C1=C(C)NC(C)=C(C(=O)OCCCNCCSc2ccccc2)C1c1cccc([N+](=O)[O-])c1 (centres unmarked) [Example 42] | 8.32 nM |  |  |  |
| COC(=O)C1=C(C)NC(C)=C(C(=O)OCCCN(CCSc2ccccc2)CCSc2ccccc2)C1c1cccc([N+](=O)[O-])c1 (centres unmarked) [Example 43] | 2.4 nM | 2% |  |  |
| CCCCN(CCCOC(=O)C1=C(C)NC(C)=C(C(=O)OC)C1c1cccc([N+](=O)[O-])c1)CCOc1ccccc1 (centres unmarked) [Example 44, [3-[[N-Butyl-N-(2-phenoxyethyl)]amino]propyl]Methyl 1,4-Dihydro-2,6-dimethyl-4-(3-nitrophenyl)-3,5-pyridinedicarboxylate Hydrochloride Hemihydrate] | 0.933 nM | 16% |  |  |
| COC(=O)C1=C(C)NC(C)=C(C(=O)OCCCN(CCN(C)c2ccccc2)Cc2ccccc2)C1c1cccc([N+](=O)[O-])c1 (centres unmarked) [Example 45, [3-[[[2-(N-Methyl-N-phenyl)amino]ethyl]-N'-phenylmethyl]propyl]Methyl 1,4-Dihydro-2,6-dimethyl-4-(3-nitrophenyl)-3,5-pyridinedicarboxylate Dihydrochloride Sesquihydrate] | 0.794 nM |  |  |  |
| COC(=O)C1=C(C)NC(C)=C(C(=O)OCCCN(CCSc2ccccc2)Cc2ccccc2)C1c1cccc([N+](=O)[O-])c1.Cl (centres unmarked) [Example 46, Methyl [3-[N-(Phenylmethyl)-N-[2-(phenylthio)ethyl]amino]propyl] 1,4-Dihydro-2,6-dimethyl-4-(3-nitrophenyl)-3,5-pyridinedicarboxylate Hydrochloride] |  | 3% | 5.62 nM |  |
| COC(=O)C1=C(C)NC(C)=C(C(=O)OCCCN(C)CC[S+]([O-])c2ccccc2)C1c1cccc([N+](=O)[O-])c1 (centres unmarked) [Example 47, Methyl [3-[N-Methyl-N-[2-phenylsulfinyl)ethyl]amino]propyl] 1,4-Dihydro-2,6-dimethyl-4-(3-nitrophenyl)-3,5-pyridinedicarboxylate Hydrochloride Hydrate] | 0.251 nM | 21% |  |  |
| COC(=O)C1=C(C)NC(C)=C(C(=O)OCCN(C)Cc2ccccc2)C1c1cccc([N+](=O)[O-])c1 (centres unmarked) [Nicardipine, reference compound] | 1.12 nM | 0% |  | fails to provide any protection against autolysis caused by ischemia |
| COC(=O)C1=C(C)NC(C)=C(C(=O)OC)C1c1ccccc1[N+](=O)[O-] [Nifedipine, 4-(2'-nitrophenyl)-2,6-dimethyl-3,5-dicarbomethoxy-1,4-dihydropyridine, reference compound] |  | 21% |  |  |
